Numbers after ± are expanded uncertainties.
Experiment: mn = molality of the nth substance listed, in mol/kg
Settings: 101.3 kPa, Liquid, Vibrating tube method

C[C@H](O)C(=O)[O-].C[C@H](O)C(=O)[O-].C[C@H](O)C(=O)[O-].[Al+3] [aluminium L-lactate] + O
Settings	mass density [kg/m3]
278.15 K, m1 = 0.0016	1000.31 ± 0.42
278.15 K, m1 = 0.0033	1000.54 ± 0.42
278.15 K, m1 = 0.0065	1000.95 ± 0.42
278.15 K, m1 = 0.016	1002.1 ± 0.42
278.15 K, m1 = 0.0281	1003.54 ± 0.42
278.15 K, m1 = 0.0521	1006.26 ± 0.42
278.15 K, m1 = 0.0995	1011.5 ± 0.42
278.15 K, m1 = 0.1996	1022.22 ± 0.42
278.15 K, m1 = 0.3045	1032.98 ± 0.42
278.15 K, m1 = 0.4021	1042.51 ± 0.42
278.15 K, m1 = 0.5059	1052.17 ± 0.42
278.15 K, m1 = 0.5991	1060.59 ± 0.42
278.15 K, m1 = 0.7147	1070.67 ± 0.42
283.15 K, m1 = 0.0016	1000.07 ± 0.45
283.15 K, m1 = 0.0033	1000.29 ± 0.42
283.15 K, m1 = 0.0065	1000.7 ± 0.42
283.15 K, m1 = 0.016	1001.82 ± 0.42
283.15 K, m1 = 0.0281	1003.24 ± 0.42
283.15 K, m1 = 0.0521	1005.92 ± 0.42
283.15 K, m1 = 0.0995	1011.1 ± 0.42
283.15 K, m1 = 0.1996	1021.72 ± 0.42
283.15 K, m1 = 0.3045	1032.35 ± 0.42
283.15 K, m1 = 0.4021	1041.79 ± 0.42
283.15 K, m1 = 0.5059	1051.34 ± 0.42
283.15 K, m1 = 0.5991	1059.68 ± 0.42
283.15 K, m1 = 0.7147	1069.65 ± 0.42
288.15 K, m1 = 0.0016	999.46 ± 0.45
288.15 K, m1 = 0.0033	999.69 ± 0.42
288.15 K, m1 = 0.0065	1000.09 ± 0.42
288.15 K, m1 = 0.016	1001.21 ± 0.42
288.15 K, m1 = 0.0281	1002.6 ± 0.42
288.15 K, m1 = 0.0521	1005.25 ± 0.42
288.15 K, m1 = 0.0995	1010.37 ± 0.42
288.15 K, m1 = 0.1996	1020.89 ± 0.42
288.15 K, m1 = 0.3045	1031.43 ± 0.42
288.15 K, m1 = 0.4021	1040.77 ± 0.42
288.15 K, m1 = 0.5059	1050.24 ± 0.42
288.15 K, m1 = 0.5991	1058.5 ± 0.42
288.15 K, m1 = 0.7147	1068.38 ± 0.42
293.15 K, m1 = 0.0016	998.56 ± 0.44
293.15 K, m1 = 0.0033	998.78 ± 0.42
293.15 K, m1 = 0.0065	999.18 ± 0.42
293.15 K, m1 = 0.016	1000.27 ± 0.42
293.15 K, m1 = 0.0281	1001.67 ± 0.42
293.15 K, m1 = 0.0521	1004.3 ± 0.42
293.15 K, m1 = 0.0995	1009.39 ± 0.42
293.15 K, m1 = 0.1996	1019.81 ± 0.42
293.15 K, m1 = 0.3045	1030.26 ± 0.42
293.15 K, m1 = 0.4021	1039.52 ± 0.42
293.15 K, m1 = 0.5059	1048.92 ± 0.42
293.15 K, m1 = 0.5991	1057.11 ± 0.42
293.15 K, m1 = 0.7147	1066.89 ± 0.42
298.15 K, m1 = 0.0016	997.37 ± 0.44
298.15 K, m1 = 0.0033	997.6 ± 0.42
298.15 K, m1 = 0.0065	997.99 ± 0.42
298.15 K, m1 = 0.016	999.09 ± 0.42
298.15 K, m1 = 0.0281	1000.46 ± 0.42
298.15 K, m1 = 0.0521	1003.09 ± 0.42
298.15 K, m1 = 0.0995	1008.13 ± 0.42
298.15 K, m1 = 0.1996	1018.48 ± 0.42
298.15 K, m1 = 0.3045	1028.85 ± 0.42
298.15 K, m1 = 0.4021	1038.07 ± 0.42
298.15 K, m1 = 0.5059	1047.37 ± 0.42
298.15 K, m1 = 0.5991	1055.51 ± 0.42
298.15 K, m1 = 0.7147	1065.25 ± 0.42
303.15 K, m1 = 0.0016	996 ± 0.44
303.15 K, m1 = 0.0033	996.22 ± 0.42
303.15 K, m1 = 0.0065	996.61 ± 0.42
303.15 K, m1 = 0.016	997.67 ± 0.42
303.15 K, m1 = 0.0281	999.04 ± 0.42
303.15 K, m1 = 0.0521	1001.64 ± 0.42
303.15 K, m1 = 0.0995	1006.64 ± 0.42
303.15 K, m1 = 0.1996	1016.92 ± 0.42
303.15 K, m1 = 0.3045	1027.23 ± 0.42
303.15 K, m1 = 0.4021	1036.37 ± 0.42
303.15 K, m1 = 0.5059	1045.62 ± 0.42
303.15 K, m1 = 0.5991	1053.7 ± 0.42
303.15 K, m1 = 0.7147	1063.36 ± 0.42
308.15 K, m1 = 0.0016	994.37 ± 0.44
308.15 K, m1 = 0.0033	994.59 ± 0.42
308.15 K, m1 = 0.0065	994.98 ± 0.42
308.15 K, m1 = 0.016	996.04 ± 0.42
308.15 K, m1 = 0.0281	997.4 ± 0.42
308.15 K, m1 = 0.0521	999.99 ± 0.42
308.15 K, m1 = 0.0995	1004.96 ± 0.42
308.15 K, m1 = 0.1996	1015.17 ± 0.42
308.15 K, m1 = 0.3045	1025.41 ± 0.42
308.15 K, m1 = 0.4021	1034.51 ± 0.42
308.15 K, m1 = 0.5059	1043.7 ± 0.42
308.15 K, m1 = 0.5991	1051.73 ± 0.42
308.15 K, m1 = 0.7147	1061.35 ± 0.42
313.15 K, m1 = 0.0016	992.55 ± 0.43
313.15 K, m1 = 0.0033	992.76 ± 0.42
313.15 K, m1 = 0.0065	993.14 ± 0.42
313.15 K, m1 = 0.016	994.21 ± 0.42
313.15 K, m1 = 0.0281	995.56 ± 0.42
313.15 K, m1 = 0.0521	998.12 ± 0.42
313.15 K, m1 = 0.0995	1003.06 ± 0.41
313.15 K, m1 = 0.1996	1013.23 ± 0.42
313.15 K, m1 = 0.3045	1023.41 ± 0.42
313.15 K, m1 = 0.4021	1032.44 ± 0.42
313.15 K, m1 = 0.5059	1041.59 ± 0.42
313.15 K, m1 = 0.5991	1049.59 ± 0.42
313.15 K, m1 = 0.7147	1059.14 ± 0.42
318.15 K, m1 = 0.0016	990.54 ± 0.43
318.15 K, m1 = 0.0033	990.75 ± 0.42
318.15 K, m1 = 0.0065	991.13 ± 0.42
318.15 K, m1 = 0.016	992.2 ± 0.42
318.15 K, m1 = 0.0281	993.53 ± 0.42
318.15 K, m1 = 0.0521	996.09 ± 0.42
318.15 K, m1 = 0.0995	1001 ± 0.41
318.15 K, m1 = 0.1996	1011.1 ± 0.41
318.15 K, m1 = 0.3045	1021.23 ± 0.42
318.15 K, m1 = 0.4021	1030.23 ± 0.42
318.15 K, m1 = 0.5059	1039.33 ± 0.42
318.15 K, m1 = 0.5991	1047.3 ± 0.42
318.15 K, m1 = 0.7147	1056.79 ± 0.42
323.15 K, m1 = 0.0016	988.37 ± 0.43
323.15 K, m1 = 0.0033	988.56 ± 0.42
323.15 K, m1 = 0.0065	988.95 ± 0.42
323.15 K, m1 = 0.016	990 ± 0.42
323.15 K, m1 = 0.0281	991.34 ± 0.42
323.15 K, m1 = 0.0521	993.87 ± 0.42
323.15 K, m1 = 0.0995	998.76 ± 0.41
323.15 K, m1 = 0.1996	1008.81 ± 0.41
323.15 K, m1 = 0.3045	1018.9 ± 0.42
323.15 K, m1 = 0.4021	1027.86 ± 0.42
323.15 K, m1 = 0.5059	1036.92 ± 0.42
323.15 K, m1 = 0.5991	1044.84 ± 0.42
323.15 K, m1 = 0.7147	1054.31 ± 0.42
328.15 K, m1 = 0.0016	986.02 ± 0.43
328.15 K, m1 = 0.0033	986.21 ± 0.42
328.15 K, m1 = 0.0065	986.59 ± 0.42
328.15 K, m1 = 0.016	987.65 ± 0.42
328.15 K, m1 = 0.0281	988.97 ± 0.42
328.15 K, m1 = 0.0521	991.49 ± 0.42
328.15 K, m1 = 0.0995	996.36 ± 0.41
328.15 K, m1 = 0.1996	1006.37 ± 0.41
328.15 K, m1 = 0.3045	1016.42 ± 0.41
328.15 K, m1 = 0.4021	1025.32 ± 0.42
328.15 K, m1 = 0.5059	1034.36 ± 0.42
328.15 K, m1 = 0.5991	1042.24 ± 0.42
328.15 K, m1 = 0.7147	1051.67 ± 0.42
333.15 K, m1 = 0.0016	983.53 ± 0.43
333.15 K, m1 = 0.0033	983.72 ± 0.42
333.15 K, m1 = 0.0065	984.09 ± 0.42
333.15 K, m1 = 0.016	985.14 ± 0.42
333.15 K, m1 = 0.0281	986.48 ± 0.42
333.15 K, m1 = 0.0521	988.97 ± 0.42
333.15 K, m1 = 0.0995	993.82 ± 0.41
333.15 K, m1 = 0.1996	1003.79 ± 0.41
333.15 K, m1 = 0.3045	1013.8 ± 0.41
333.15 K, m1 = 0.4021	1022.68 ± 0.41
333.15 K, m1 = 0.5059	1031.67 ± 0.42
333.15 K, m1 = 0.5991	1039.53 ± 0.42
333.15 K, m1 = 0.7147	1048.93 ± 0.42
338.15 K, m1 = 0.0016	980.88 ± 0.42
338.15 K, m1 = 0.0033	981.06 ± 0.42
338.15 K, m1 = 0.0065	981.45 ± 0.42
338.15 K, m1 = 0.016	982.49 ± 0.42
338.15 K, m1 = 0.0281	983.81 ± 0.42
338.15 K, m1 = 0.0521	986.3 ± 0.42
338.15 K, m1 = 0.0995	991.13 ± 0.41
338.15 K, m1 = 0.1996	1001.06 ± 0.41
338.15 K, m1 = 0.3045	1011.04 ± 0.41
338.15 K, m1 = 0.4021	1019.88 ± 0.41
338.15 K, m1 = 0.5059	1028.85 ± 0.42
338.15 K, m1 = 0.5991	1036.68 ± 0.42
338.15 K, m1 = 0.7147	1046.04 ± 0.42
343.15 K, m1 = 0.0016	978.11 ± 0.41
343.15 K, m1 = 0.0033	978.27 ± 0.42
343.15 K, m1 = 0.0065	978.67 ± 0.42
343.15 K, m1 = 0.016	979.71 ± 0.42
343.15 K, m1 = 0.0281	981.02 ± 0.42
343.15 K, m1 = 0.0521	983.51 ± 0.42
343.15 K, m1 = 0.0995	988.33 ± 0.41
343.15 K, m1 = 0.1996	998.2 ± 0.41
343.15 K, m1 = 0.3045	1008.14 ± 0.41
343.15 K, m1 = 0.4021	1017.05 ± 0.41
343.15 K, m1 = 0.5059	1025.9 ± 0.42
343.15 K, m1 = 0.5991	1033.73 ± 0.42
343.15 K, m1 = 0.7147	1043.05 ± 0.42
